Results taken from patent US12577213B2 (NINGBO COMBIREG PHARMACEUTICAL TECHNOLOGY CO., LTD., priority 2020, dated 2026).
Like-named read-outs stand apart in the source and are kept apart here.

Experiments:
[1] = Liver microsomes stability; type: in vitro ADME, human; settings: for half-life at 1 μM: human, human liver microsomes
Summary of the method: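 Compound at 1 μM final incubated with 1 mg/mL human liver microsomes and 1 mM NADPH (no-NADPH control), sampled at 0, 5, 15, 30, 60 min. Remaining parent quantified by LC-MS/MS; T1/2 = 0.693/k.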

K562 (leukemia) = assay: NCI method SRB growth inhibition, K562; type: cell-based; settings: Homo sapiens; K562, treated 48 hours, SRB stain
Summary of the method: (§1)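 In vitro growth inhibition over 48 h, quantified by SRB protein staining (515 nm) against time-zero and vehicle controls; GI50 reported.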

PC-3 (prostate cancer) = assay: NCI method SRB growth inhibition, PC-3; type: cell-based; settings: Homo sapiens; PC-3, treated 48 hours, SRB stain
Summary of the method: as §1

786-0 (renal cancer) = assay: NCI method SRB growth inhibition, 786-0; type: cell-based; settings: Homo sapiens; 786-0, treated 48 hours, SRB stain
Summary of the method: as §1

[2] = Metabolic stability in vivo (plasma half-life after IV); settings: mouse, plasma, iv; intravenously at 1 mg/kg, male BALB/c nude mice; read-out: T½ of (IV in nude mice) (converted)
Procedure: The intravenous injection group of the embodiment compound was prepared with the mixed solvent of DMA:PEG400:30% SBECD=5:25:70 to form a 0.2 mg/mL of solution, and administered intravenously at 1 mg/kg of weight; and the oral preparation group was prepared with 0.5% MC to form a 1 mg/mL of solution, and administered by oral gavage at 10 mg/kg weight.
• Male BALB/c nude mice, 4-5 weeks old, purchased from Shanghai SLAC. 3. Experiment Method: 3.1 Instruments: • Liquid chromatography system: Shimadzu liquid chromatography system Shimadzu LC-30AD • MS/MS system: Applied Biosystems API5500 • Data collection: Analyst Software 1.5.2 3.2 Chromatographic Conditions Chromatographic Column • Analytical column: Kinetex 2.6u C18 100 A column (3.0 mm×30 mm) • Mobile phase: A: 10 mM NH4OAc (0.1% FA); B: Acetonitrile with 0.1% […] • Flow rate: 1.0 mL/min
Ion source was an electron spray ionization (ESI source) with negative ion detection; spray voltage source was 5500 V; ion source gas 1 (N2) was 50 psi; ion source gas 2 (N2) was 50 psi; air curtain gas (N2) was 30 psi. Scanning mode was multiple reaction monitoring (MRM); scanning time was 80 ms; collision gas pressure was 10 psi;
Grouping experiment, with three animals in each group, starting from now on, administration was started according to the weight of the animals. Blood was collected according to 5 min, 15 min, 30 min, 1 h, 2 h, 4 h, 8 h and 24 h after administration.
To 25.0 μL of plasma, 25.0 μL of internal standard solution (Tolbutamide (250 ng/mL) in acetonitrile), 25.0 μL of acetonitrile and 100 μL of acetonitrile were added, and the mixture was vortexed for 1 min, and centrifuged for 5 min (14000 rpm). 120 μL of the resulting supernatant was added with 80.0 μL of water (containing 1% formic acid) and mixed well, then analyzed by LC/MS/MS.

LOX-IMVI (melanoma) = assay: NCI method SRB growth inhibition, LOX-IMVI; type: cell-based; settings: Homo sapiens, treated 48 hours, SRB stain
Summary of the method: as §1

OVCAR-3 (ovarian cancer) = assay: NCI method SRB growth inhibition, OVCAR-3; type: cell-based; settings: Homo sapiens; OVCAR-3, treated 48 hours, SRB stain
Summary of the method: as §1

HCT116 (colon cancer) = assay: NCI method SRB growth inhibition, HCT116; type: cell-based; settings: Homo sapiens, HCT-116; HCT116, treated 48 hours, SRB stain
Summary of the method: as §1

HS 578T (breast cancer) = assay: NCI method SRB growth inhibition, HS 578T; type: cell-based; settings: Homo sapiens, HS578T, treated 48 hours, SRB stain
Summary of the method: as §1

[3] = test system: A549 (non-small cell lung cancer); assay: NCI method SRB growth inhibition, A549; type: cell-based; settings: Homo sapiens; A549, treated 48 hours, SRB stain
Summary of the method: as §1

[4] = test system: SF295 (central nervous system tumor); assay: NCI method SRB growth inhibition, SF295; type: cell-based; settings: Homo sapiens, SF-295; SF295, treated 48 hours, SRB stain
Summary of the method: as §1

[5] = 1 μM compound, 1 mg/mL human liver microsomes, 1 mM NADPH
[6] = 1 μM compound, 1 mg/mL human liver microsomes, 1 mM NADPH, read-out: T½ of HLM
[7] = as repeated in Table 4, read-out: T½ of HLM (in vitro)

microsomal CLint at 1 μM [1, 5] [µL/min/mg]	half-life at 1 μM [1, 6] [h]	half-life at 1 μM [1, 7] [h]	half-life [2] [h]	SMILES	GI50 (K562 (leukemia)) [nM]	GI50 (PC-3 (prostate cancer)) [nM]	GI50 (786-0 (renal cancer)) [nM]	GI50 (LOX-IMVI (melanoma)) [nM]	GI50 (OVCAR-3 (ovarian cancer)) [nM]	GI50 (HCT116 (colon cancer)) [nM]	GI50 (HS 578T (breast cancer)) [nM]	GI50 [3] [nM]	GI50 [4] [nM]
9.5	1.22	1.22	1.31	[2H]C([2H])([2H])Oc1cc(C(=O)Nc2cc3c(cc2Oc2cc(C)cc(C)c2)C(=O)N[C@@H](CC(=O)N(C([2H])([2H])C([2H])([2H])[2H])C([2H])([2H])C([2H])([2H])[2H])C(=O)N3)c(Cl)c(OC([2H])([2H])[2H])c1OC([2H])([2H])[2H] [Compound 6, (S)-2-chloro-N-[3-[2-[bis(pentadeuteroethyl)amino]-2-oxoethyl]-7-(3,5-dimethylphenoxy)-2,5-dioxo-2,3,4,5-tetrahydro-1H-benzo[e][1,4]diazepin-8-yl]-3,4,5-tris(trideuteromethoxy)benzamide]	< 5	10.3	16.9	< 5	11.9	< 5	20.5	11.7	13.1
16.5	0.7	0.7	0.885	[2H]C([2H])([2H])Oc1cc(C(=O)Nc2cc3c(cc2Oc2cc(C)cc(C)c2)C(=O)N[C@@H](CC(=O)N(CC)CC)C(=O)N3)c(Cl)c(OC([2H])([2H])[2H])c1OC([2H])([2H])[2H] [Compound 1, (S)-2-chloro-N-[3-[2-(diethylamino)-2-oxoethyl]-7-(3,5-dimethylphenoxy)-2,5-dioxo-2,3,4,5-tetrahydro-1H-benzo[e][1,4]diazepin-8-yl]-3,4,5-tris(trideuteromethoxy)benzamide]	< 5	5.5	8.1	< 5	5.5	5.4	31.6	15	12.3
